SMILES strings stand for the structures. Structures can show the parent of a compound that is named as a salt.

T1 sequence (Q08345 444-876 isoform Q08345-2 limits assumed): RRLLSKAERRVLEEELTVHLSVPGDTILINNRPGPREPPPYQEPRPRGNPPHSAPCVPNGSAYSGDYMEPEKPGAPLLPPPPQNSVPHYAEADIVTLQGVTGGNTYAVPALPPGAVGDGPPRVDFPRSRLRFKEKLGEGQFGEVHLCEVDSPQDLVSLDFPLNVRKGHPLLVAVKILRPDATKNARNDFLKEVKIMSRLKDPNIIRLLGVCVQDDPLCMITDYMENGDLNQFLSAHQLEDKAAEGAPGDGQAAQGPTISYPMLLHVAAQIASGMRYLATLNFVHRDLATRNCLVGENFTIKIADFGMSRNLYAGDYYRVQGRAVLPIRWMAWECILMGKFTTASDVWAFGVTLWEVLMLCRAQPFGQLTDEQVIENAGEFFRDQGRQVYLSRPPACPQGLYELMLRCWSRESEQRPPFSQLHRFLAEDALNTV

The assay addresses T1, intracellular domain of DDR1 (Homo sapiens, UniProt Q08345).
T1 construct: the intracellular domain of DDR1 (in a final concentration of 5 ng/μL) (Carna Biosciences, Inc.); purchased Carna Biosciences, Inc
Nature of the assay: Evaluation of DDR1 inhibition activity with HTRF KinEASE-TK kit. The settings on record: intracellular domain of DDR1 5 ng/μL, ATP 25 mol/L (so in the source), TK Substrate-biotin 1000 nmol/L, room temperature, one hour. Format: biochemical. The method, then: The DDR1 inhibition activity of the compounds of Examples 1 to 51 was evaluated with HTRF® KinEASE-TK kit (Cisbio Bioassays).
Each test substance was dissolved in dimethyl sulfoxide (hereinafter referred to as DMSO) and then used for the evaluation as described below. Moreover, each of test substances and reagents was diluted in the kinase buffer (Cisbio Bioassays) prepared by adding thereto MgCl2, MnCl2, DTT, and the Supplemental Enzyme buffer (Cisbio Bioassays) to concentrations of 5 mmol/L, 0.5 mmol/L, 0.25 mmol/L, and 50 nmol/L, respectively, and then used. Each test substance (in DMSO in a final concentration of 1%), the intracellular domain of DDR1 (in a final concentration of 5 ng/μL) (Carna Biosciences, Inc.), the phosphate donor ATP (in final concentration of 25 mol/L) (Sigma), and the substrate TK Substrate-biotin (in a final concentration of 1000 nmol/L) (Cisbio Bioassays) were added to a 384-well black plate (Corning) and allowed to react at room temperature for one hour. After completion of the reaction, the TK Antibody-Cryptate (Cisbio Bioassays) and the Streptavidin-XL665 (Cisbio Bioassays) were added thereto and allowed to react at room temperature for one hour. In addition, the plate was provided with a well to which a test substance was not added, and with a well to which the intracellular domain of DDR1 and a test substance were not added.
The fluorescence intensity in each well was measured using a multi-label counter (Envision, PerkinElmer; excitation wavelength: 320 nm, measurement wavelength: 665 nm and 620 nm) to calculate a Ratio (the fluorescence intensity at 665 nm/the fluorescence intensity at 620 nm). The inhibition rate (%) of a test substance at each concentration was calculated based on the formula below. Inhibition rate (%)=([the Ratio obtained from the well containing no test substance]−[the Ratio from a well containing a test substance])/([the Ratio obtained from the well containing no test substance]−[the Ratio obtained from the well containing no intracellular domain of DDR1 and no test substance])×100
The calculated inhibition rates were fitted to a sigmoidal dose-response curve by regression analysis using the Prism 5.04 (GraphPad Software, Inc.) to calculate the ICso0 value of the test substance.
For orientation: In TR-FRET formats the signal depends on donor and acceptor labels being close together.
By IC50 is commonly meant the midpoint of a concentration-inhibition curve. High values mean weaker potency in that assay, low ones greater potency in that assay. `COc1c(CO)cc(C(F)(F)F)cc1NC(=O)NCc1ccccc1OCc1ccc(C(=O)O)cc1` [Compound of Example 11, 4-((2-((3-(3-(hydroxymethyl)-2-methoxy-5-(trifluoromethyl)phenyl)ureido)methyl)phenoxy)methyl)benzoic acid]: the IC50 stood at 0.15 µM.

Regarding `CNC(=O)c1ccc(COc2ccccc2CNC(=O)Nc2cc(OC(F)(F)F)ccc2OC)cc1` [Compound of Example 13, 4-((2-((3-(2-methoxy-5-(trifluoromethoxy)phenyl)ureido)methyl)phenoxy)methyl)-N-methylbenzamide], half-maximal inhibition (IC50) was put at 0.0964 µM.

`CNC(=O)c1ccc(Oc2ccccc2CNC(=O)Nc2cccc(C(F)(F)F)c2)nc1` [Compound of Example 48, N-methyl-6-(2-((3-(3-(trifluoromethyl)phenyl)ureido)methyl)phenoxy)nicotinamide] returned an IC50 of 0.0291 µM.

`COc1c(CO)cc(C(F)(F)F)cc1NC(=O)NCc1ccccc1Oc1ccc(C(N)=O)cc1` [Compound of Example 29] showed a half-inhibitory concentration (IC50) of 0.00598 µM.

`COc1ccc(OC(F)(F)F)cc1NC(=O)NCc1ccccc1OCc1ccc(C(=O)NCCN(C)C)cc1` [Compound of Example 16, N-(2-(dimethylamino)ethyl)-4-((2-((3-(2-methoxy-5-(trifluoromethoxy)phenyl)ureido)methyl)phenoxy)methyl)benzamide] came in with a concentration for half-maximal inhibition (IC50) of 0.163 µM.

Regarding `COc1ccc(OC(F)(F)F)cc1NC(=O)NCc1ccccc1OCc1ccnc(C(N)=O)c1` [Compound of Example 5, 4-((2-((3-(2-methoxy-5-(trifluoromethoxy)phenyl)ureido)methyl)phenoxy)methyl)picolinamide], the IC50 turned out to be 0.047 µM.

As for `COc1ccc(Cl)cc1NC(=O)NCc1ccccc1Oc1ccc(C(N)=O)cc1` [Compound of Example 50], half-maximal inhibition (IC50) required 0.0123 µM.

As to `NC(=O)c1ccc(Oc2ccccc2CNC(=O)Nc2cccc(C(F)(F)F)c2)nc1` [Compound of Example 47, 6-(2-((3-(3-(trifluoromethyl)phenyl)ureido)methyl)phenoxy)nicotinamide], the IC50 came out at 0.0234 µM.

`NC(=O)c1ccc(Oc2ccccc2CNC(=O)Nc2cc(CO)cc(C(F)(F)F)c2)cc1` [Compound of Example 35] registered an IC50 of 0.0129 µM.

Turning to `COc1ccc(C(F)(F)F)cc1NC(=O)NCc1ccccc1Oc1ccc(C(=O)O)cc1` [Compound of Example 30], inhibition was half-maximal at 0.0124 µM (IC50).

`COc1ccc(S(F)(F)(F)(F)F)cc1NC(=O)NCc1ccccc1Oc1ccnc(-n2ccnc2)n1` [Compound of Example 24, 1-(2-((2-(1H-imidazol-1-yl)pyrimidin-4-yl)oxy)benzyl)-3-(2-methoxy-5-(pentafluorosulfanyl)phenyl)urea] yielded an IC50 of 0.0422 µM.

The compound `NC(=O)c1ccc(Oc2ccccc2CNC(=O)Nc2cccc(Cl)c2)cc1` [Compound of Example 49, 4-(2-((3-(3-chlorophenyl)ureido)methyl)phenoxy)benzamide] returned an IC50 of 0.0193 µM.

Compound `NC(=O)c1ccc(Oc2ccccc2CNC(=O)Nc2cc(C(F)(F)F)ccc2OC2CCNCC2)cc1` [Compound of Example 41, 4-(2-((3-(2-(piperidin-4-yloxy)-5-(trifluoromethyl)phenyl)ureido)methyl)phenoxy)benzamide] displayed an IC50 of 0.0352 µM.

In the case of `NC(=O)c1ccc(COc2ccccc2CNC(=O)Nc2cccc(C(F)(F)F)c2)cc1` [Compound of Example 19, 4-((2-((3-(3-(trifluoromethyl)phenyl)ureido)methyl)phenoxy)methyl)benzamide], the IC50 is 0.0374 µM.

The compound `COc1ccc(OC(F)(F)F)cc1NC(=O)NCc1ccccc1OCc1ccc(C(N)=O)cc1` [Compound of Example 12, 4-((2-((3-(2-methoxy-5-(trifluoromethoxy)phenyl)ureido)methyl)phenoxy)methyl)benzamide] came in with an IC50 of 0.0386 µM.

The compound `COC(=O)c1ccc(COc2ccccc2CNC(=O)Nc2cc(OC(F)(F)F)ccc2OC)cc1` [Compound of Example 7, methyl 4-((2-((3-(2-methoxy-5-(trifluoromethoxy)phenyl)ureido)methyl)phenoxy)methyl)benzoate] returned an IC50 of 0.585 µM.

In the case of `CCOc1ccc(C(F)(F)F)cc1NC(=O)NCc1ccccc1Oc1ccc(C(N)=O)cc1` [Compound of Example 46], the midpoint of inhibition, the IC50, lay at 0.0225 µM.

In the case of `CN1CCN(Cc2cc(NC(=O)NCc3ccccc3Oc3ccc(C(N)=O)cc3)cc(C(F)(F)F)c2)CC1` [Compound of Example 37, 4-(2-((3-(3-((4-methylpiperazin-1-yl)methyl)-5-(trifluoromethyl)phenyl)ureido)methyl)phenoxy)benzamide], the concentration for half-maximal inhibition (IC50) was 0.0117 µM.

With `NC(=O)c1ccc(Oc2ccccc2CNC(=O)Nc2cc(C(F)(F)F)ccc2OC2COC2)cc1` [Compound of Example 33, 4-(2-((3-(2-(oxetan-3-yloxy)-5-(trifluoromethyl)phenyl)ureido)methyl)phenoxy)benzamide], half-maximal inhibition (IC50) required 0.0129 µM.

The compound `COc1c(CO)cc(C(F)(F)F)cc1NC(=O)NCc1ccccc1OCc1cccc(C(N)=O)c1` [Compound of Example 22] showed an IC50 of 0.0285 µM.

Turning to `NC(=O)c1ccc(Oc2ccccc2CNC(=O)Nc2cc(CN3CCNCC3)cc(C(F)(F)F)c2)cc1` [Compound of Example 39, 4-(2-((3-(3-((piperazin-1-ylmethyl)-5-(trifluoromethyl)phenyl)ureido)methyl)phenoxy)benzamide hydrochloride], the IC50 came out at 0.0042 µM.

`NC(=O)c1ccc(Oc2ccccc2CNC(=O)Nc2ccc(CO)c(C(F)(F)F)c2)cc1` [Compound of Example 36, 4-(2-((3-(4-(hydroxymethyl)-5-(trifluoromethyl)phenyl)ureido)methyl)phenoxy)benzamide] came in with an IC50 of 0.0132 µM.

The compound `CNCCNC(=O)c1ccc(COc2ccccc2CNC(=O)Nc2cc(OC(F)(F)F)ccc2OC)cc1` [Compound of Example 17, 4-((2-((3-(2-methoxy-5-(trifluoromethoxy)phenyl)ureido)methyl)phenoxy)methyl)-N-(2-(methylamino)ethyl)benzamide] displayed an IC50 of 0.185 µM.

`NC(=O)c1ccc(Oc2ccccc2CNC(=O)Nc2cc(OC(F)(F)F)ccc2OC2COC2)cc1` [Compound of Example 34, 4-(2-((3-(2-(oxetan-3-yloxy)-5-(trifluoromethoxy)phenyl)ureido)methyl)phenoxy)benzamide] returned an IC50 of 0.022 µM.

`COc1ccc(OC(F)(F)F)cc1NC(=O)NCc1ccccc1Oc1ccc(C(N)=O)cc1` [Compound of Example 27] yielded a 50% inhibitory concentration (IC50) of 0.021 µM.

As to `COc1ccc(C(F)(F)F)cc1NC(=O)NCc1cccc(OCc2cccnc2)c1` [Compound of Example 6], the IC50 amounted to 0.0325 µM.

`COc1c(CO)cc(C(F)(F)F)cc1NC(=O)NCc1ccccc1Oc1ccc(C(=O)O)cc1` [Compound of Example 28] registered an IC50 of 0.0145 µM.

For the compound `COc1c(CO)cc(S(F)(F)(F)(F)F)cc1NC(=O)NCc1ccccc1OCc1ccncc1` [Compound of Example 2], the half-inhibitory concentration (IC50) was 0.0261 µM.

As to `COc1c(CO)cc(C(F)(F)F)cc1NC(=O)NCc1ccccc1OCc1ccc(C(N)=O)cc1` [Compound of Example 20, 4-((2-((3-(3-(hydroxymethyl)-2-methoxy-5-(trifluoromethyl)phenyl)ureido)methyl)phenoxy)methyl)benzamide], it took 0.0135 µM to reach half-maximal inhibition (IC50).

Consider `COC(=O)c1ccc(COc2ccccc2CNC(=O)Nc2cc(C(F)(F)F)cc(CO)c2OC)cc1` [Compound of Example 10, methyl 4-((2-((3-(3-(hydroxymethyl)-2-methoxy-5-(trifluoromethyl)phenyl)ureido)methyl)phenoxy)methyl)benzoate], for which the concentration for half-maximal inhibition (IC50) stood at 0.156 µM.

On to `COC(=O)c1ccc(Oc2ccccc2CNC(=O)Nc2cc(OC(F)(F)F)ccc2OC)cc1` [Compound of Example 25], for which the IC50 worked out at 0.194 µM.

Regarding `NC(=O)c1ccc(Oc2ccccc2CNC(=O)Nc2ccc(CN3CCNCC3)c(C(F)(F)F)c2)cc1` [Compound of Example 40, 4-(2-((3-(4-((piperazin-1-ylmethyl)-5-(trifluoromethyl)phenyl)ureido)methyl)phenoxy)benzamide hydrochloride], the IC50 stood at 0.00891 µM.

`CCOc1ccc(Cl)cc1NC(=O)NCc1ccccc1Oc1ccc(C(N)=O)cc1` [Compound of Example 51]: the IC50 is 0.0183 µM.

For `CCN(CC)CCNC(=O)c1ccc(COc2ccccc2CNC(=O)Nc2cc(OC(F)(F)F)ccc2OC)cc1` [Compound of Example 15, N-(2-(diethylamino)ethyl)-4-((2-((3-(2-methoxy-5-(trifluoromethoxy)phenyl)ureido)methyl)phenoxy)methyl)benzamide], the IC50 was 0.308 µM.

Values taken from patent US10519106B2, “Urea derivative and use therefor” (Toray Industries, Inc., priority 2015, dated 2019).
